Measured values as given in patent US20030087947A1, “Novel photosensitizers of 9-hydroxypheophorbide-a derivatives used for photodynamic therapy” (priority 2000, published 2003).

Columns and labels:
[1] = tested on: lung cancer A549 cell line; assay: Cytotoxicity of photosensitizer without irradiation (dark culture, cell death rate); assay type: cell-based; conditions: 75 μg/ml, dark culture room, 48 hours, no irradiation, mean of 5 experiments
Protocol: (§1) In order to minimize the side light reaction by natural light and lamp, the cell distribution and medium exchange were carried out in green light (500 nm), where the experimental samples were not reacted. After 75 μg/ml of reagent treatment on each 10 dishes at the dark culture room, the experimental samples were cultured for 48 hours. Then, the cell death rate was measured. The data was calculated as a mean value after 5 times experiments. […] Further, the cytotoxicity of 9-HPbD-a could be neglectable.

[2] = tested on: cancer cell line; assay: FACS analysis of cell cycle; assay type: cell-based; conditions: FACS analysis after treatment
[3] = tested on: SNU-1041 implanted tumor; assay: Therapeutic effect at the implanted tumor (3 groups, bare fiber tip laser); assay type: in vivo, nude mice BALB/C/nu/nu; conditions: among 10 cases; intratumoral injection 0.1˜0.2 ml, 660 nm diode laser after 1˜4 hours
Protocol: As experimental animals, 6 weeks aged male nude mice BALB/C/nu/nu were employed, supplying sterilized water and sterilized feed. These animals were bred in filter-top cage under proper temperature and moisture. To implant cultured cancer cell lines into nude mouse, 0.1 ml of SNU-1041 cell line suspension (10^7 cells/0.1 ml) was injected subcutaneously. After injection, the tumor occurred and the volume of tumor became increased after more than 8 weeks observation.
Plain melanoma cell line SNU-1041 was implanted into nude mouse. After the lapse of 8 weeks, it was observed that the tumor became spread in all body. The photodynamic therapy was performed only after the tumor volume became 100˜600 mm^3.
The experimental groups were divided into 3 groups for photodynamic therapy. 660 nm diode laser was inserted and irradiated using bare fiber tip. By monitoring the temperature outside of the tumor, the therapeutic effect caused by hyperthermia was removed. The optimal irradiation strength and time were measured.
The photodynamic therapy was performed when the volume of implanted tumor became about 100˜600 mm^3. The experimental groups were divided into 3 groups.
0.1˜0.2 ml of 9-HPbD-a (0.75 mg/ml) was injected into tumor using 30G syringe. After 1˜4 hours, 660 nm diode laser was irradiated using […] fiber optic tip. […]

[4] = tested on: cyclin B1; assay: Western blot analysis of cell cycle regulation during photodynamic therapy; assay type: cell-based; conditions: 75˜0.0185 μg/ml, 20 joule total light dose
Protocol: FIG. 1 is a photograph showing cell cycle regulation after treating 9-hydroxypheophorbide-a of formula (I) to the cancer cell line.
The change of cell cycle is a key element for evaluating cancer treatment. In most anti-cancer agents, the growth of cancer cells is suppressed by regulating the expression of cell cycle regulation gene. In this example, the change of cell cycle was measured using 9-HPbD-a during the photodynamic therapy. Using various cencentrations of photosensitizer (75˜0.0185 μg/ml) under 20 joule in total light dose, Western blot analysis was carried out to detect the change of cell cycle in accordance with change of regulation activity of cell cycle regulation gene.

[5] = tested on: lung cancer A549 cell line; assay: In-vitro photodynamic therapy efficacy (cell death after irradiation); assay type: cell-based
Protocol: The cell line added with “Photogem” was treated and irradiated by red light (570˜650 nm, 0.35 mW/cm^2, 315 J/m^2) from fluorescent lamp and the test sample was treated and irradiated by same red light and laser (660 nm, 0.35 mW/cm^2, 315 J/m^2). After irradiation treatment, the cell line was cultured by adding new medium and 10% of fetal calf serum at 37° C. The cytotoxicity was measured by clonogenic assay after 8 days.
The dose-response curve was prepared after following treatment; i) treating each 25 µg/ml of Photogem, 10-hydroxypheophytin-a and 9-hydroxypheophorbide-a (“9-HPbD-a”) to each cell line; ii) laying them for 2 hours; and iii) treating and irradiating the 660 nm light (315 J/m^2). To the Photogem sample, the light (630±10 nm) was used by 1 KW Xenon lamp (Model A 5000; Photon Technology International Inc.; Power density 75 mW/cm^2) equipped with 5 mm diameter of liquid light guide (2000A, Luminex, Munich, Germany).
as §1
Further, in a small amount (0.75 μg/ml), high cell death effect was detected. Using another synthesized compound of 9-HPbD-a in the other batch, the experiment was performed according to same protocol again. We detected the same result through the repeated experiments.
With a very small amount 0.0185 μg/ml of administration, the cell death treated with 9-HPbD-a occurred according to the increase of total light dose.

[6] = tested on: SNU-1041 implanted tumor; assay: Photodynamic therapy using 9-HPbD-a (6 groups, tumor volume and RTG); assay type: in vivo, nude mice BALB/C/nu/nu
Protocol: The experimental groups were divided into 6 groups when the volume of implanted tumor became about 100˜600 mm^3. Following treatment was performed and the change of tumor was observed.
With only 0.1˜0.15 ml of administration of 9-HPbD-a and liposome conjugate into the tumor, the change of tumor was observed without irradiation.
With only 0.1˜0.15 ml of administration of Photogem into the tumor, the change of tumor was observed without irradiation.
0.1˜0.15 ml of Photogem was administered into the tumor.
0.1˜0.15 ml of 9-HPbD-a and liposome conjugate was administered into the tumor.
The photodynamic therapy was initiated after 2 weeks from implantation of cancer cell line, when the volume of tumor became about 100˜600 mm^3 (FIG. 6).
The measurements of tumor volume were carried out at the time of just before administration of test material; just after administration of 9-HPbD-a; 1 week after administration; 2 weeks after administration; 3 weeks after administration; and 4 weeks after administration. The anti-cancer effect was evaluated by the volume of tumor. The calculation of volume was carried out by using following equation.
(V=volume, A=long axis, B=short axis, C=height)
The evaluation of anti-cancer effect was decided after 4 weeks observation of tumor volume. […] FIG. 7 is a photograph showing that the tumor is treated by administration of 9-HPbD-a with 660 nm diode laser irradiation.

[7] = when used in more than a certain amount; cited from earlier work
[8] = decomposing slowly in the room temperature; cited from earlier work
[9] = 0.0185 μg/ml, total light dose 100 joule
[10] = 0.0375 μg/ml, total light dose 100 joule
[11] = 0.075 μg/ml, total light dose 100 joule
[12] = 0.75 μg/ml, total light dose 20 joule, 665 nm monochromatic light
[13] = 0.75 μg/ml, total light dose 100 joule
[14] = 7.5 μg/ml, total light dose 20 joule, 665 nm monochromatic light
[15] = 75 μg/ml, total light dose 20 joule, 665 nm monochromatic light
[16] = after 4 weeks from treatment, administration into tumor with 660 nm diode laser irradiation

Compound	Cytotoxicity (cell death rate) [1] [%]	Cell cycle effect [2]	Cases showing complete elimination of tumor [3] [cases]	Cases showing partial elimination of tumor [3] [cases]	Amount of cyclin B1 [4]	Efficacy (cell death) [5, 9] [%]	Efficacy (cell death) [5, 10] [%]	Efficacy (cell death) [5, 11] [%]	Efficacy (cell death) [5, 12]	Efficacy (cell death) [5, 13] [%]	Efficacy (cell death) [5, 14]	Efficacy (cell death) [5, 15] [%]	Concentration, relative to known photosensitizer concentration, showing considerable cell death effect ([5]; A549, total light dose 20 joule)	Relative tumor growth (RTG) [6, 16]	Volume of tumor [6, 16] [mm^3]	Change of tumor volume ([6]; photosensitizer into the tumor only, without irradiation (Group 3 and 4))	Toxicity [7]	Efficacy (cell death) ([5]; 7.5 μg/ml, total light dose 100 joule) [%]	Stability [8]
C=Cc1c(C)c2cc3nc(c4c5[nH]c(cc6nc(cc1[nH]2)C(C)=C6CC)c(C)c5C(O)[C@@H]4C(=O)OC)[C@@H](CCC(=O)O)[C@@H]3C (stereo partly drawn) [9-HPbD-a, 9-hydroxypheophorbide-a]	10.05	cell cycle arrest occurred in G2/M cell cycle	3	7	rapidly declined	10	25	100	10˜20%	100	100%	100	1/100	3.5	646	no observation of decline of tumor volume			
C=Cc1c(C)c2cc3nc(c4c5[nH]c(cc6nc(cc1[nH]2)C(C)=C6CC)c(C)c5C(=O)C4(O)C(=O)OC)C(CCC(=O)OCC=C(C)CCCC(C)CCCC(C)CCCC(C)C)C3C (stereo not drawn) [10-hydroxypheophytin-a, reference compound]	3.94					0	0	0	0%	5.85	5˜10%	<70					fatal toxicity	100	
C=Cc1c(C)c2cc3nc(c4c5[nH]c(cc6nc(cc1[nH]2)C(C)=C6CC)c(C)c5C(=O)[C@@H]4C(=O)OC)[C@@H](CCC(=O)O)[C@@H]3C [pheophorbide-a]																			low stability
